Publication PMC5908784, “Extracellular loops 2 and 3 of the calcitonin receptor selectively modify agonist binding and efficacy” (Biochemical Pharmacology, 2018)
Changes are numbered by the printed parent chain. Where a SMILES comes first, the peptide text is derived from it. Bridges are numbered along the chain shown (N, C = ends).

Key:
Experiment in all cases: ERK1/2 phosphorylation
Type in all cases: cell-based
hCTR F359A = target: T1, hCTR F359A (Homo sapiens, UniProt P30988, F359A); conditions: for Emax: read-out: Emax (% WT); for EC50: pERK, hCTR F359A, CV1-FlpIn cells, three-parameter logistic fit, mean ± S.E.M.
T1 construct: expressed in transfected cells
T1 sequence (P30988 25-474 F359A): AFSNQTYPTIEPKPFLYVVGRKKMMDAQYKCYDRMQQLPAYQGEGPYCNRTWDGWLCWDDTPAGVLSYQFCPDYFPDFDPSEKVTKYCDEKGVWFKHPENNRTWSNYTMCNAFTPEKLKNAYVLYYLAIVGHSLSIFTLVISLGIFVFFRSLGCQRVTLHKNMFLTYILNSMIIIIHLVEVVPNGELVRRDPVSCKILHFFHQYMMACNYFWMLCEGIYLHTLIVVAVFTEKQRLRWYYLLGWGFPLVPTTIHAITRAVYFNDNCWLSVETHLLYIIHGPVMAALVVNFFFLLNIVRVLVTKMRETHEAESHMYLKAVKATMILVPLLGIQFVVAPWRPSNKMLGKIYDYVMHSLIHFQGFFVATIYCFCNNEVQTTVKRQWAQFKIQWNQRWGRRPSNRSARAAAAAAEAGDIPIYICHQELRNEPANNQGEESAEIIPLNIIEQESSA
Description: (§1) Cells (2.5 × 10^4 cells/well) were seeded into 96-well culture plates and incubated overnight. […] Data were normalized to the maximal response elicited by 10% FBS determined at 6 min.
(§2) Data were corrected for radioligand occupancy using the Cheng-Prusoff equation in Prism; as such data are reported as pKi. Emax and EC50 were estimated from concentration-response curves using with a 3-parameter logistic equation in Prism (v7). These values are a composite of functional affinity, efficacy and stimulus response coupling. […] Significance was accepted at P < 0.05.

hCTR T280A = target: T2, hCTR T280A (Homo sapiens, UniProt P30988, T280A); conditions: CV1-FlpIn cells, mean ± S.E.M.; for Emax: pERK maximal response; for EC50: pERK, three-parameter logistic fit
T2 construct: expressed in transfected cells
T2 sequence (P30988 25-474 T280A): T1 sequence (P30988 25-474 F359A) with T256A, A335F
Description: as §1, §2

hCTR N365A = target: T3, hCTR N365A (Homo sapiens, UniProt P30988, N365A); conditions: CV1-FlpIn cells, mean ± S.E.M.; for Emax: pERK maximal response; for EC50: pERK, three-parameter logistic fit
T3 construct: c-Myc (N); expressed in transfected cells
T3 sequence (P30988 25-474 N365A): T1 sequence (P30988 25-474 F359A) with A335F, N341A
Description: as §1, §2

hCTR D373A = target: T4, hCTR D373A (Homo sapiens, UniProt P30988, D373A); conditions: CV1-FlpIn cells, mean ± S.E.M.; for Emax: pERK maximal response
T4 construct: c-Myc (N); expressed in transfected cells
T4 sequence (P30988 25-474 D373A): T1 sequence (P30988 25-474 F359A) with A335F, D349A
Description: as §1, §2

hCTR S292A = target: T5, hCTR S292A (Homo sapiens, UniProt P30988, S292A); conditions: CV1-FlpIn cells, mean ± S.E.M.; for Emax: pERK maximal response; for EC50: pERK, three-parameter logistic fit
T5 construct: expressed in transfected cells
T5 sequence (P30988 25-474 S292A): T1 sequence (P30988 25-474 F359A) with S268A, A335F
Description: as §1, §2

EC50 (hCTR F359A) | EC50 (hCTR T280A) | EC50 (hCTR N365A) | EC50 (hCTR S292A) | EC50 (hCTR D373A; pERK, three-parameter logistic fit) | SMILES | Emax (hCTR F359A) | Emax (hCTR T280A) | Emax (hCTR N365A) | Emax (hCTR D373A) | Emax (hCTR S292A)
– | – | – | – | – | CC[C@H](C)[C@H](NC(=O)[C@H](C)NC(=O)[C@@H](NC(=O)[C@H](CCC(N)=O)NC(=O)[C@@H]1CCCN1C(=O)[C@H](Cc1ccccc1)NC(=O)[C@@H](NC(=O)[C@H](Cc1c[nH]cn1)NC(=O)[C@H](Cc1ccccc1)NC(=O)[C@H](CCCCN)NC(=O)[C@H](CC(N)=O)NC(=O)[C@H](Cc1ccccc1)NC(=O)[C@H](CC(=O)O)NC(=O)[C@H](CCC(N)=O)NC(=O)[C@@H](NC(=O)[C@H](Cc1ccc(O)cc1)NC(=O)[C@@H](NC(=O)CNC(=O)[C@H](CC(C)C)NC(=O)[C@H](CCSC)NC(=O)[C@@H]1CSSC[C@H](N)C(=O)NCC(=O)N[C@@H](CC(N)=O)C(=O)N[C@@H](CC(C)C)C(=O)N[C@@H](CO)C(=O)N[C@@H]([C@@H](C)O)C(=O)N1)[C@@H](C)O)[C@@H](C)O)[C@@H](C)O)[C@@H](C)O)C(=O)NCC(=O)N[C@H](C(=O)NCC(=O)N[C@@H](C)C(=O)N1CCC[C@H]1C(N)=O)C(C)C [hCT] | 153 ± 8% | 168 ± 12% | 93 ± 6% | 71 ± 7% | 116 ± 11%
6.31 nM | 53.7 nM | 30.2 nM | 20.9 nM | – | CC(C)C[C@H](NC(=O)CNC(=O)[C@H](C)NC(=O)[C@H](CC(C)C)NC(=O)[C@H](CCCNC(=N)N)NC(=O)[C@H](Cc1cnc[nH]1)NC(=O)[C@@H](NC(=O)[C@@H](NC(=O)[C@@H]1CSSC[C@H](NC(=O)[C@H](C)N)C(=O)N[C@@H](CC(=O)O)C(=O)N[C@@H]([C@@H](C)O)C(=O)N[C@@H](C)C(=O)N[C@@H]([C@@H](C)O)C(=O)N1)C(C)C)[C@@H](C)O)C(=O)N[C@@H](CC(C)C)C(=O)N[C@@H](CO)C(=O)N[C@@H](CCCNC(=N)N)C(=O)N[C@@H](CO)C(=O)NCC(=O)NCC(=O)N[C@H](C(=O)N[C@H](C(=O)N[C@@H](CCCCN)C(=O)N[C@@H](CC(N)=O)C(=O)N[C@@H](CC(N)=O)C(=O)N[C@@H](Cc1ccccc1)C(=O)N[C@H](C(=O)N1CCC[C@H]1C(=O)N[C@H](C(=O)N[C@@H](CC(N)=O)C(=O)N[C@H](C(=O)NCC(=O)N[C@@H](CO)C(=O)N[C@@H](CCCCN)C(=O)N[C@@H](C)C(=O)N[C@@H](Cc1ccccc1)C(N)=O)C(C)C)[C@@H](C)O)C(C)C)C(C)C)C(C)C [hαCGRP] | – | 106 ± 12% | 52 ± 8% | – | 80 ± 12%
6.31 nM | 2.04 nM | 1.62 nM | 0.55 nM | 4.9 nM | CSCC[C@H](NC(=O)CNC(=O)[C@H](CO)NC(=O)[C@H](Cc1ccccc1)NC(=O)[C@H](CCCNC(=N)N)NC(=O)[C@H](Cc1c[nH]cn1)NC(=O)[C@H](Cc1ccccc1)NC(=O)[C@H](CC(N)=O)NC(=O)[C@H](CC(N)=O)NC(=O)[C@H](CC(C)C)NC(=O)[C@H](CC(N)=O)NC(=O)[C@H](CCCNC(=N)N)NC(=O)[C@H](Cc1c[nH]c2ccccc12)NC(=O)[C@H](Cc1ccc(O)cc1)NC(=O)[C@H](C)NC(=O)[C@H](CO)NC(=O)[C@H](CC(C)C)NC(=O)[C@@H](NC(=O)[C@@H]1CSSC[C@H](N)C(=O)N[C@@H](CO)C(=O)N[C@@H](CC(N)=O)C(=O)N[C@@H](CC(C)C)C(=O)N[C@@H](CO)C(=O)N[C@@H]([C@@H](C)O)C(=O)N1)C(C)C)C(=O)NCC(=O)N[C@@H](Cc1ccccc1)C(=O)NCC(=O)N1CCC[C@H]1C(=O)N[C@@H](CCC(=O)O)C(=O)N[C@H](C(=O)N1CCC[C@H]1C(N)=O)[C@@H](C)O [pCT] (H-CSNLSTCVLSAYWRNLNNFHRFSGMGFGPETP-NH2; disulfide 1-7) | – | 160 ± 10% | 98 ± 10% | 32 ± 4% | 104 ± 7%
– | – | – | – | – | CC(C)C[C@H](NC(=O)[C@H](CC(N)=O)NC(=O)[C@H](CC(N)=O)NC(=O)[C@H](CO)NC(=O)[C@H](CO)NC(=O)[C@H](CCCNC(=N)N)NC(=O)[C@@H](NC(=O)[C@H](CC(C)C)NC(=O)[C@H](Cc1ccccc1)NC(=O)[C@H](CC(N)=O)NC(=O)[C@H](C)NC(=O)[C@H](CC(C)C)NC(=O)[C@H](CCCNC(=N)N)NC(=O)[C@H](CCC(N)=O)NC(=O)[C@@H](NC(=O)[C@H](C)NC(=O)[C@@H]1CSSC[C@H](NC(=O)[C@@H](N)CCCCN)C(=O)N[C@@H](CC(N)=O)C(=O)N[C@@H]([C@@H](C)O)C(=O)N[C@@H](C)C(=O)N[C@@H]([C@@H](C)O)C(=O)N1)[C@@H](C)O)C(C)C)C(=O)NCC(=O)N1CCC[C@H]1C(=O)N[C@H](C(=O)N[C@@H](CC(C)C)C(=O)N1CCC[C@H]1C(=O)N1CCC[C@H]1C(=O)N[C@H](C(=O)N[C@@H](CC(N)=O)C(=O)N[C@H](C(=O)NCC(=O)N[C@@H](CO)C(=O)N[C@@H](CC(N)=O)C(=O)N[C@H](C(=O)N[C@@H](Cc1ccc(O)cc1)C(N)=O)[C@@H](C)O)C(C)C)[C@@H](C)O)C(C)C [rAmy] | 58 ± 11% | 110 ± 11% | 63 ± 10% | – | 96 ± 12%
– | – | – | – | – | CC(C)C[C@H](NC(=O)[C@H](CCCCN)NC(=O)CNC(=O)[C@H](CC(C)C)NC(=O)[C@@H](NC(=O)[C@@H]1CSSC[C@H](N)C(=O)N[C@@H](CO)C(=O)N[C@@H](CC(N)=O)C(=O)N[C@@H](CC(C)C)C(=O)N[C@@H](CO)C(=O)N[C@@H]([C@@H](C)O)C(=O)N1)C(C)C)C(=O)N[C@@H](CO)C(=O)N[C@@H](CCC(N)=O)C(=O)N[C@@H](CCC(=O)O)C(=O)N[C@@H](CC(C)C)C(=O)N[C@@H](Cc1c[nH]cn1)C(=O)N[C@@H](CCCCN)C(=O)N[C@@H](CC(C)C)C(=O)N[C@@H](CCC(N)=O)C(=O)N[C@H](C(=O)N[C@@H](Cc1ccc(O)cc1)C(=O)N1CCC[C@H]1C(=O)N[C@@H](CCCNC(=N)N)C(=O)N[C@H](C(=O)N[C@@H](CC(N)=O)C(=O)N[C@H](C(=O)NCC(=O)N[C@@H](CO)C(=O)NCC(=O)N[C@H](C(=O)N1CCC[C@H]1C(N)=O)[C@@H](C)O)[C@@H](C)O)[C@@H](C)O)[C@@H](C)O [sCT] | 186 ± 7% | 158 ± 12% | 84 ± 3% | 103 ± 11% | 121 ± 7%
